Measured values as given in PMC11134387, “Cancer-Stem-Cell Phenotype-Guided Discovery of a Microbiota-Inspired Synthetic Compound Targeting NPM1 for Leukemia” (JACS Au, 2024).

Experiments:
[1] = test system: primary HSCs from patients with NPM1 C+ AML; test: CD34+ liquid HSC short-term culture, NPM1 C+ AML patients; assay type: cell-based; conditions: Homo sapiens, n = 4
Procedure: Considering the inhibitory capacity of UCM-13369 on AML cell lines (shown in Figure 3A), the therapeutic potential was assessed in primary CD34+ cells from AML patients. Two ex vivo models were used from AML patients and healthy donors: CD34+ liquid HSC (hematopoietic stem cell) culture as a short-term model and CFU-E (colony-forming unit–erythroid) as a midterm model.
The test compound was diluted in PBS. […]
quantitative real-time PCR (qPCR), or were sorted using a FACS BD INFL UX cell sorter (BD Biosciences, Franklin Lakes, NJ, USA). All cells were maintained at 37 °C in a humidified incubator in an atmosphere of 5% CO2, and passaged every 2–3 days. […]
Primary cells. […] After 72 h in maintenance cells were ready to start the assays. […]
Colonospheres, mamospheres and colony formation unit assays. […] After 10 days (mamospheres and colonospheres) and 14 days (CFU-E) we quantified t he number of colonies/spheres and number of cell s (CFU-E) by […]
RNA and DNA extraction and quantitative PCR (qPCR). […] Gene expression was studied from the extracted RNA, processed into cDNA to quantify the expression of NPM1 and c-MYC. […]
The relative amount of targets was determined by the comparative Ct method.
Western blot. […] Lysates wer e cl ear ed by centrifugation (14,000g, 4 °C, 30 min), protein concentration determined by Bradford

NPM1 = test: Western blot of NPM1 in OCI-AML3 cells; assay type: cell-based; conditions: for Densitometry values for NPM1: reduction: OCI-AML3, 10 μM
Procedure: (§1) We next studied the impact of UCM-13369 in the genes and/or expression levels of NPM1 and NPM1 C+ pathway components (Figure 4A), including the positive regulation of c-Myc[34] and the negative regulation of FBXW7 and the pro-apoptotic CASP8.[35] […] The inhibition of NPM1 was also observed in MOLM13 cells expressing WT NPM1 (Figure S1B).
(§2) Assay (Bio-Rad Labo rato ries, Hercules, CA, USA) and 20 µg of total protein s was loaded onto 10% SDS-PAGE gels followed by transfer onto a nitrocellulose membrane. Blots were incubated with primary antibodies α-NPM1 (Abcam ), α-M YC (Cel l Signaling), α-FBXW7 ( Abcam) and an ti-mouse or anti-rabbit secondary antibodies (BD). An antibody to β-actin was used to check for equivalent protei n loading. Membranes were developed by enhanced chemiluminescenc e (Clarity Weste rn ECL substrate; Bio-Rad Laboratories ).
Densitometry was performed with Image Lab software, normalized to the signal of β-actin, and r-normalized with the control.
(§3) Proteomic analysis. A supplementary table (Excel file) includes all the data of the proteomic analysis, showing all the proteins identified, not only those ablated in the treated population, but also those found with different expression levels in both populations under study, and even those that were not detected in the control population but were detected in the treated population. Follows the image of a Venn diagram showing the number of proteins detected in each of the pop ulations and the proteins that converg e […]
2.3. NPM1 protein studies
DNA constructs. For recombinant expression, pET28a(+) vectors encoding the native, N-end pentameric domain (residues 1- 130) and the C-end domain (residues 225- 294) constructs of NPM1 –all of which contained a N -terminal 6xHis tag– were available at the lab.4 Site directed mutagenesis was p erfo rmed by polymerase chain reaction (PCR) using the pET28a-NPM1 C-end WT vector to obtain the NPM1 C-end AML mutant construct (NPM1 C-end C+). The following primers were designed: 5’ – […]
(1 picture or pasted object on this page, not shown here)

FBXW7 = test: Western blot of FBXW7 in OCI-AML3 cells; assay type: cell-based
Procedure: as §1
as §2, with “Laboratories ). […]” for “Laboratories ).”
as §3

[2] = In vivo pharmacokinetic study; set-up: species or system mouse; conditions: single intraperitoneal administration, 25 mg/kg, up to 6 h
Procedure: Based on the encouraging results obtained in ex vivo models of AML, we further assessed the therapeutic potential of the new NPM1 inhibitor in vivo. Prior to the evaluation of the compound in an animal model of AML, in vivo pharmacokinetic studies were addressed. Following a single intraperitoneal administration of UCM-13369 at a dose of 25 mg/kg, levels of 200–600 μg/L were detected in mouse peripheral blood up to 6 h (Figure 6A). Plasma protein binding of the compound in mouse serum was measured using an equilibrium dialysis assay, indicating a bound fraction of 83 ± 1%. Next, the efficacy of the compound was evaluated in immunodeficient mice after injection of OCI-AML3-ffLuc-GFP cells as an AML animal model.
For the pharmacokinetic study of UCM-13369, after injecting 25 mg/kg dose of the compound, samples of blood were withdrawn at different times (30, 60, 120, 240, 360 min), and the presence of tested compound was analyzed by HPLC-MS. The area of the molecular peak allowed us to calculate the concentration of the compound present in mice serum at each time.

COc1ccc(C2Cc3[nH]c4ccccc4c3C(CCNCC3CC3)C2N)cc1 (stereo not drawn) [4b, 4-{2-[(Cyclopropylmethyl)amino]ethyl}-2-(4-methoxyphenyl)-2,3,4,9-tetrahydro-1H-carbazol-3-amine]
IC50 [1]: 1720 nM | Densitometry values for NPM1: reduction (NPM1; 24 h): 50% | Densitometry values for NPM1: reduction (NPM1; 48 h): 70% | NPM1 levels (in words) (NPM1; OCI-AML3, qPCR and Western blot): reduced levels | FBXW7 levels (in words) (FBXW7): upregulated | Levels in mouse peripheral blood [2]: 200 to 600 ng/mL
